Assay results: patent publication US10597388B2, “Pyridazinone herbicides” (FMC CORPORATION, priority 2014, dated 2020)

Key:
Type in all cases: in vivo
[1] = system: kochia (Kochia scoparia); assay: Test A greenhouse herbicide test, pre- and postemergence
In short: (§1)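 Visual injury ratings, 0 (no effect) to 100 (complete control), versus untreated plants after roughly 10 d in a greenhouse. Compounds, formulated in a surfactant-containing non-phytotoxic solvent, were sprayed on loam–sand soil after sowing (pre) or on one- to two-leaf plants 2–10 cm tall (post).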

[2] = system: pigweed (Amaranthus retroflexus); assay: as above
In short: as §1

[3] = system: corn (Zea mays); assay: as above; settings: Postemergence
In short: as §1

[4] = system: ryegrass, Italian (Italian ryegrass, Lolium multiflorum); assay: as above
In short: as §1

[5] = system: barnyardgrass (Echinochloa crus-galli); assay: as above
In short: as §1

[6] = system: wheat (Triticum aestivum); assay: as above; settings: Postemergence
In short: as §1

[7] = system: foxtail, giant (giant foxtail, Setaria faberii); assay: as above
In short: as §1

[8] = system: ragweed (common ragweed, Ambrosia elatior); assay: as above
In short: as §1

[9] = system: ryegrass, Italian (Italian ryegrass, Lolium multiflorum); assay: Test C greenhouse herbicide test, pre- and postemergence
In short: (§2)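 Greenhouse pots; pre-em on seeded loam:sand blend, post-em on 2–18 cm plants (1–4 leaf) in sphagnum peat/vermiculite medium. Formulation: non-phytotoxic solvent + surfactant. Read-out: visual % control (0–100) vs controls at 13–15 d.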

[10] = system: lambsquarters (Chenopodium album); assay: as above
In short: as §2

[11] = system: nutsedge, yellow (yellow nutsedge, Cyperus esculentus); assay: as above
In short: as §2

[12] = Postemergence, 125 g ai/ha, 0 to 100 scale, 0 no effect, 100 complete control
[13] = Postemergence, 500 g ai/ha, visual rating after approx. 10 d, 0 to 100 scale (0 no effect, 100 complete control)
[14] = Preemergence, 125 g ai/ha, visual injury rating, 0 to 100 scale (0 no effect, 100 complete control), approx. 10 d
[15] = Preemergence, 500 g ai/ha, 0 to 100 scale where 0 is no effect and 100 is complete control
[16] = 125 g ai/ha, 0 to 100 scale, 0 no effect, 100 complete control
[17] = 500 g ai/ha, visual rating after approx. 10 d, 0 to 100 scale (0 no effect, 100 complete control)
[18] = Postemergence, 31 g ai/ha, scale 0 to 100 (0 no effect, 100 complete control)
[19] = Postemergence, 62 g ai/ha, 0 to 100 scale (0 no effect, 100 complete control)
[20] = Postemergence, 250 g ai/ha, scale 0 to 100, 0 is no effect, 100 is complete control
[21] = postemergence, 125 g ai/ha, scale 0 to 100, 0 no effect, 100 complete control

Cc1ccc2ccccc2c1-c1c(OC(=O)N2CCOCC2)c(Br)nn(C)c1=O [Compound 176]
Plant response rating, Kochia [1, 12]: 30 | Plant response rating, Kochia [1, 13]: 70 | Plant response rating, Kochia [1, 14]: 0 | Plant response rating, Kochia [1, 15]: 20 | Plant response rating, Pigweed [2, 12]: 30 | Plant response rating, Pigweed [2, 13]: 90 | Plant response rating, Pigweed [2, 14]: 0 | Plant response rating, Pigweed [2, 15]: 90 | Plant response rating, Corn [3, 16]: 0 | Plant response rating, Corn [3, 17]: 0 | Plant response rating, Ryegrass, Italian [4, 12]: 30 | Plant response rating, Ryegrass, Italian [4, 13]: 100 | Plant response rating, Ryegrass, Italian [4, 14]: 0 | Plant response rating, Ryegrass, Italian [4, 15]: 90 | Plant response rating, Barnyardgrass [5, 12]: 0 | Plant response rating, Barnyardgrass [5, 13]: 10 | Plant response rating, Barnyardgrass [5, 14]: 0 | Plant response rating, Barnyardgrass [5, 15]: 10 | Plant response rating, Wheat [6, 16]: 0 | Plant response rating, Wheat [6, 17]: 0 | Plant response rating, Foxtail, Giant [7, 12]: 0 | Plant response rating, Foxtail, Giant [7, 13]: 10 | Plant response rating, Foxtail, Giant [7, 14]: 0 | Plant response rating, Foxtail, Giant [7, 15]: 10 | Plant response rating, Ragweed [8, 12]: 40 | Plant response rating, Ragweed [8, 13]: 100 | Plant response rating, Ragweed [8, 14]: 20 | Plant response rating, Ragweed [8, 15]: 70 | Plant response rating, Ryegrass, Italian [9, 18]: 0 | Ryegrass, Italian plant response rating [9, 19]: 0 | Plant response rating, Ryegrass, Italian [9, 20]: 10 | Ryegrass, Italian plant response rating [9, 21]: 0 | Plant response rating, Lambsquarters [10, 18]: 60 | Lambsquarters plant response rating [10, 19]: 80 | Plant response rating, Lambsquarters [10, 20]: 90 | Lambsquarters plant response rating [10, 21]: 80 | Plant response rating, Nutsedge, Yellow [11, 18]: 5 | Nutsedge, Yellow plant response rating [11, 19]: 5 | Plant response rating, Nutsedge, Yellow [11, 20]: 5 | Nutsedge, Yellow plant response rating [11, 21]: 5
